From US20100197650A1, “COMPOSITIONS AND METHODS OF TREATMENT COMPRISING CEFTAROLINE” (FOREST LABORATORIES HOLDINGS LTD., priority 2008, published 2010)
In brackets after ≈: the same amount, converted by molar mass.

How the values were obtained:
Staphylococcus aureus = test: MIC, broth microdilution (Example 1); format: cell-based; settings: Staphylococcus aureus
Method: (§1) Stock solutions of all antibacterial agents were prepared at 80-fold (80×) the final target concentration in the appropriate solvent and the solution was allowed to stand for 60 minutes. All antibacterial agents were in solution under these conditions. The final drug concentrations in the FIC assay plates were set to bracket the MIC value of each agent for each test organism, unless the strain was totally resistant to the test agent.
(§2) The test organisms were originally received from clinical sources, or from the American Type Culture Collection. Upon receipt, the isolates were streaked onto the appropriate growth medium: Chocolate Agar for H. influenzae, Tryptic Soy Agar II (Becton Dickinson, Sparks, Md.) supplemented with 5% defibrinated sheep blood for streptococci, and unsupplemented Tryptic Soy Agar II for all other organisms. Colonies were harvested from these plates and a cell suspension was prepared in Tryptic Soy Broth (Becton Dickinson) containing cryoprotectant. Aliquots were then frozen at −80° C. On the day prior to assay, the frozen seeds of the organisms to be tested in that session were thawed and streaked for isolation onto the appropriate agar medium plates and incubated overnight at 35° C.
(§3) The test medium for H. influenzae was Haemophilus Test Medium. Streptococci were tested in Mueller Hinton II Broth (Becton Dickinson; Lot 6235472) supplemented with 2% lysed horse blood (Cleveland Scientific, Bath, Ohio; Lot H88621). All other organisms were tested in Mueller Hinton II Broth (Becton Dickinson, Lot 6235472). The broth was prepared at 1.05× normal weight/volume to offset the 5% volume of the drugs in the final test plates.
(§4) In order to select the proper test concentrations for each drug combination, minimal inhibitory concentration (MIC) values were first determined using the broth microdilution method previously described (Clinical and Laboratory Standards Institute. Methods for Dilution Antimicrobial Susceptibility Tests for Bacteria That Grow Aerobically; Approved Standard—Seventh Edition. Clinical and Laboratory Standards Institute document M7-A7 [ISBN 1-56238-587-9]. Clinical and Laboratory Standards Institute, 940 West Valley Road, Suite 1400, Wayne, Pa. 19087-1898 USA, 2006).
(§5) The wells of standard 96-well microdilution plates (Falcon 3918) were filled with 150 μL of 100% DMSO using the Multidrop 384. These plates were used to prepare the drug “mother plates” which provided the serial drug dilutions for the drug combination plates. The Biomek 2000 was used to transfer 150 μl of each stock solution (80×) from the wells in Column 1 of a deep well plate to the corresponding wells in Column 1 of the mother plate and to make seven 2-fold serial dilutions. Two mother plates, one for each drug, were combined to form a “checkerboard” pattern by transfer of equal volumes (using a multi-channel pipette) to the drug combination plate. Row H and Column 8 each contained serial dilutions of one of the agents alone for determination of the MIC.
(§6) Plates were stacked 3 high, covered with a lid on the top plate, placed in plastic bags, and incubated at 35° C. for approximately 20 hours. Following incubation, the microplates were removed from the incubator and viewed from the bottom using a ScienceWare plate viewer. Prepared reading sheets were marked for the MIC of drug 1 (row H), the MIC of drug 2 (column 8) and the wells of the growth-no growth interface.

Enterococcus faecalis = test: MIC, broth microdilution (Example 1); format: cell-based
Method: as §1, §2, §3, §4, §5, §6

Streptococcus pneumoniae = test: MIC, broth microdilution (Example 1); format: cell-based
Method: as §1, §2, §3, §4, §5, §6

HA-MRSA [1] = test: Time-kill curves at ¼ and ½ MIC (Example 3); format: cell-based, Staphylococcus aureus; settings: drug alone at ½ MIC, the 4 tested HA-MRSA strains
Method: Four randomly selected HA-MRSA isolates were evaluated in time-kill experiments, using a starting inoculum at ˜10^6 CFU/mL and antimicrobials at ¼ and ½ MIC. Regimens included ceftaroline, vancomycin and tobramycin alone or combination of tobramycin with ceftaroline or vancomycin. […] Additivity, antagonism and indifference were defined as <2 but >1 log10 kill, >1 log10 growth and ±1 log kill, respectively.
Differences between regimens were analyzed by T-test or ANOVA with Tukey's post hoc test. […] A P value <0.05 was considered significant.

HA-MRSA [2] = test: Susceptibility testing MIC/MBC, broth microdilution (Example 3); format: cell-based, Staphylococcus aureus
Method: Two hundred clinical HA-MRSA isolates, harboring the SCCmecIV type, were evaluated for susceptibility testing. […] Four strains, including 1 hVISA and 1 VISA, characterized by population analysis profile and Macro Etest were selected for time-kill analysis.
Trypose soy agar (TSA; Difco, Detroit, Mich.) was used for colony counting.
Minimum inhibitory concentrations (MIC) and minimum bactericidal concentrations (MBC) were determined by broth microdilution for all antimicrobials, according to the Clinical and Laboratory Standards Institute (CLSI) guidelines (Clinical and Laboratory Standards Institute. 2006. Methods for Dilution Antimicrobial Susceptibility Tests for Bacteria That Grow Aerobically; Approved Standard. 7th ed. Wayne, Pa.: CLSI). MBC values were determined by plating of aliquots of 5 μL from clear wells onto TSA. All susceptibility testing were performed in duplicate.

Acinetobacter baumannii = test: MIC, broth microdilution (Example 1); format: cell-based
Method: as §1, §2, §3, §4, §5, §6

Klebsiella pneumoniae = test: MIC, broth microdilution (Example 1); format: cell-based; settings: Klebsiella pneumoniae
Method: as §1, §2, §3, §4, §5, §6

[3] = test system: clinical Enterobacteriacae and P. aeruginosa isolates; test: Susceptibility testing (Example 2), summary over species; format: cell-based; settings: Pseudomonas aeruginosa, read-out: MIC values
ESBL-producing E. coli = test: Susceptibility testing MIC/MBC, broth microdilution (Example 2); format: cell-based, Escherichia coli; settings: for MBC / MIC: Escherichia coli
[4] = test system: ESBL-producing Klebsiella pneumoniae; test: as above; format: cell-based; settings: for MBC / MIC: Klebsiella pneumoniae
P. aeruginosa = test: as above; format: cell-based, Pseudomonas aeruginosa; settings: for MBC / MIC: Pseudomonas aeruginosa
[5] = test system: AmpC-derepressed Enterobacter cloacae; test: microbe, parasite or virus in culture; format: cell-based; settings: for MBC / MIC: Enterobacter cloacae
[6] = Staphylococcus aureus, MRSA / VISA, HA-MRSA isolate R2303 (VISA)
[7] = Staphylococcus aureus, MRSA, HA-MRSA isolate R3804
[8] = Staphylococcus aureus, MRSA, HA-MRSA isolate R3875 (hVISA)
[9] = Staphylococcus aureus, MRSA, HA-MRSA isolate R4039
[10] = K. pneumonia (10) clinical isolates
[11] = P. aeruginosa (20) clinical isolates
[12] = E. cloacae (10) clinical isolates

`CN[C@H](CC(C)C)C(=O)N[C@H]1C(=O)N[C@@H](CC(N)=O)C(=O)N[C@H]2C(=O)N[C@H]3C(=O)N[C@H](C(=O)N[C@H](C(=O)O)c4cc(O)cc(O)c4-c4cc3ccc4O)[C@H](O)c3ccc(c(Cl)c3)Oc3cc2cc(c3O[C@@H]2O[C@H](CO)[C@@H](O)[C@H](O)[C@H]2O[C@H]2C[C@](C)(N)[C@H](O)[C@H](C)O2)Oc2ccc(cc2Cl)[C@H]1O` [Vancomycin] gave an MIC (Staphylococcus aureus; MRSA, S. aureus 0765 (MRSA)) of 2 µg/mL, an MIC (Staphylococcus aureus; MRSA, S. aureus 2053 (MRSA)) of 1 µg/mL and an MIC (Staphylococcus aureus; MSSA, S. aureus 0753 (MSSA)) of 1 µg/mL. For the same molecule, the MIC (Staphylococcus aureus; MSSA, S. aureus 2063 (MSSA)) was 1 µg/mL, the MIC (Enterococcus faecalis; E. faecalis 0796 (VSE)) was 2 µg/mL and the MIC (Enterococcus faecalis; Enterococcus faecalis) was 2 µg/mL. The MIC (Streptococcus pneumoniae; Streptococcus pneumoniae, PRSP, S. pneumoniae 0880 (PRSP)) was 0.5 µg/mL, the MIC (Streptococcus pneumoniae; Streptococcus pneumoniae, PRSP, S. pneumoniae 0884 (PRSP)) was 0.5 µg/mL and the MIC (Streptococcus pneumoniae; Streptococcus pneumoniae, S. pneumoniae 0866 (PSSP)) was 0.25 µg/mL. The MIC (Streptococcus pneumoniae; Streptococcus pneumoniae, S. pneumoniae 0869 (PSSP)) was 0.5 µg/mL, the bactericidal activity (HA-MRSA [1]) was “did not display bactericidal activity” and the “% of Isolates with MBC 0.25 μg/mL” value (HA-MRSA [2]; 200 HA-MRSA isolates) was 0.5%. For the same molecule, the “% of Isolates with MBC 0.5 μg/mL” value (HA-MRSA [2]; 200 HA-MRSA isolates) was 6%, the “% of Isolates with MBC 1 μg/mL” value (HA-MRSA [2]; 200 HA-MRSA isolates) was 52.5% and the “% of Isolates with MBC 2 μg/mL” value (HA-MRSA [2]; 200 HA-MRSA isolates) was 36.5%. The “% of Isolates with MBC ≧4 μg/mL” value (HA-MRSA [2]; 200 HA-MRSA isolates) was 4.5%, the “% of Isolates with MIC 0.25 μg/mL” value (HA-MRSA [2]; 200 HA-MRSA isolates) was 1.5% and the “% of Isolates with MIC 0.5 μg/mL” value (HA-MRSA [2]; 200 HA-MRSA isolates) was 14.5%. The “% of Isolates with MIC 1 μg/mL” value (HA-MRSA [2]; 200 HA-MRSA isolates) was 62%, the “% of Isolates with MIC 2 μg/mL” value (HA-MRSA [2]; 200 HA-MRSA isolates) was 21.5% and the “% of Isolates with MIC ≧4 μg/mL” value (HA-MRSA [2]; 200 HA-MRSA isolates) was 0.5%. The “MBC range” value (HA-MRSA [2]; 200 HA-MRSA isolates) was 0.25 to 4 µg/mL, the “MIC range” value (HA-MRSA [2]; 200 HA-MRSA isolates) was 0.25 to 4 µg/mL and the MIC50 (HA-MRSA [2]; Staphylococcus aureus, MRSA) was 1 µg/mL (≈ 0.69 µM). The MIC90 (HA-MRSA [2]; Staphylococcus aureus, MRSA) was 2 µg/mL (≈ 1.38 µM), the MBC (HA-MRSA [2]; [6]) was 8 µg/mL (≈ 5.52 µM) and the MIC (HA-MRSA [2]; [6]) was 4 µg/mL (≈ 2.76 µM). For the same molecule, the MBC (HA-MRSA [2]; [7]) was 1 µg/mL (≈ 0.69 µM), the MIC (HA-MRSA [2]; [7]) was 0.5 µg/mL (≈ 0.345 µM) and the MBC (HA-MRSA [2]; [8]) was 2 µg/mL (≈ 1.38 µM). The MIC (HA-MRSA [2]; [8]) was 2 µg/mL (≈ 1.38 µM), the MBC (HA-MRSA [2]; [9]) was 1 µg/mL (≈ 0.69 µM) and the MIC (HA-MRSA [2]; [9]) was 1 µg/mL (≈ 0.69 µM).

Work on `CN(C)c1cc(NC(=O)CNC(C)(C)C)c(O)c2c1C[C@H]1C[C@H]3[C@H](N(C)C)C(O)=C(C(N)=O)C(=O)[C@@]3(O)C(O)=C1C2=O` [Tigecycline] yielded an MIC (Staphylococcus aureus; MRSA, S. aureus 0765 (MRSA)) of 0.25 µg/mL, an MIC (Staphylococcus aureus; MRSA, S. aureus 2053 (MRSA)) of 0.5 µg/mL and an MIC (Acinetobacter baumannii; A. baumannii 2602) of 0.06 µg/mL. For the same molecule, the MIC (Acinetobacter baumannii; Acinetobacter baumannii) was 0.06 µg/mL, the MIC (Streptococcus pneumoniae; S. pneumoniae 0884 (PRSP)) was 0.03 µg/mL and the MIC (Streptococcus pneumoniae; Streptococcus pneumoniae, PRSP) was 0.03 µg/mL. For the same molecule, the MIC (Klebsiella pneumoniae) was 0.25 µg/mL, the MIC [3] was no more than 8 µg/mL and the MBC range (ESBL-producing E. coli; E. coli (10) clinical isolates) was 0.06 to 4 µg/mL. For the same molecule, the MIC range (ESBL-producing E. coli; E. coli (10) clinical isolates) was 0.06 to 0.5 µg/mL, the MBC (ESBL-producing E. coli; E. coli isolate no. 5401) was 1 µg/mL (≈ 1.71 µM) and the MIC (ESBL-producing E. coli; E. coli isolate no. 5401) was 0.5 µg/mL (≈ 0.854 µM). For the same molecule, the MBC (ESBL-producing E. coli; E. coli isolate no. 5411) was 0.5 µg/mL (≈ 0.854 µM), the MIC (ESBL-producing E. coli; E. coli isolate no. 5411) was 0.125 µg/mL (≈ 0.213 µM) and the MBC range [4, 10] was 0.5 to 8 µg/mL. It also gave an MIC range [4, 10] of 0.125 to 1 µg/mL, an MBC ([4]; K. pneumonia isolate no. 5427) of 2 µg/mL (≈ 3.41 µM) and an MIC ([4]; K. pneumonia isolate no. 5427) of 0.5 µg/mL (≈ 0.854 µM). It also gave an MBC ([4]; K. pneumonia isolate no. 5436) of 1 µg/mL (≈ 1.71 µM), an MIC ([4]; K. pneumonia isolate no. 5436) of 0.125 µg/mL (≈ 0.213 µM) and an MBC range (P. aeruginosa; [11]) of 8 to 256 µg/mL. For the same molecule, the MIC range (P. aeruginosa; [11]) was 2 to 32 µg/mL, the MBC (P. aeruginosa; P. aeruginosa isolate no. 796) was 32 µg/mL (≈ 54.6 µM) and the MIC (P. aeruginosa; P. aeruginosa isolate no. 796) was 32 µg/mL (≈ 54.6 µM). The MBC (P. aeruginosa; P. aeruginosa isolate no. 956) was 128 µg/mL (≈ 219 µM), the MIC (P. aeruginosa; P. aeruginosa isolate no. 956) was 16 µg/mL (≈ 27.3 µM) and the MBC (P. aeruginosa; P. aeruginosa isolate no. 1019) was 8 µg/mL (≈ 13.7 µM). The MIC (P. aeruginosa; P. aeruginosa isolate no. 1019) was 2 µg/mL (≈ 3.41 µM), the MBC (P. aeruginosa; P. aeruginosa isolate no. 1037) was 32 µg/mL (≈ 54.6 µM) and the MIC (P. aeruginosa; P. aeruginosa isolate no. 1037) was 8 µg/mL (≈ 13.7 µM). For the same molecule, the MBC range [5, 12] was 0.5 to 4 µg/mL, the MIC range [5, 12] was 0.25 to 2 µg/mL and the MBC ([5]; E. cloacae isolate no. 4073) was 2 µg/mL (≈ 3.41 µM). It also gave an MIC ([5]; E. cloacae isolate no. 4073) of 0.5 µg/mL (≈ 0.854 µM), an MBC ([5]; E. cloacae isolate no. 5420) of 2 µg/mL (≈ 3.41 µM) and an MIC ([5]; E. cloacae isolate no. 5420) of 0.5 µg/mL (≈ 0.854 µM).
